Test results: ChEMBL document CHEMBL1156090, “Design and synthesis of cell potent BACE-1 inhibitors: structure-activity relationship of P1' substituents” (Bioorg Med Chem Lett, 2009)

Assays:
[1] = system: HEK293; experiment: […] HEK293 cells expressing swedish-mutant APP FAD isoform; type: functional, Homo sapiens; conditions: read-out: ED50 (the source's name)
[2] = target: Beta-secretase 1 (Homo sapiens, UniProt P56817)
Description: Inhibition of recombinant BACE1 expressed in Escherichia coli after 3 hrs by oregon green based fluorescence polarization assay

[3] = target: Cathepsin D (Homo sapiens, UniProt P07339)
Description: Inhibition of cathepsin D assessed as reduction in polarization after 110 mins by oregon green based fluorescence polarization assay

[4] = Apparent permeability from apical side to basolateral side in MDCK2 cells at 5 uM after 120 mins by LC/MS/MS; type: ADME, cell-based, Canis lupus familiaris, MDCK-II; conditions: dog, MDCK

Beta-secretase 1, sequence (P56817 whole entry): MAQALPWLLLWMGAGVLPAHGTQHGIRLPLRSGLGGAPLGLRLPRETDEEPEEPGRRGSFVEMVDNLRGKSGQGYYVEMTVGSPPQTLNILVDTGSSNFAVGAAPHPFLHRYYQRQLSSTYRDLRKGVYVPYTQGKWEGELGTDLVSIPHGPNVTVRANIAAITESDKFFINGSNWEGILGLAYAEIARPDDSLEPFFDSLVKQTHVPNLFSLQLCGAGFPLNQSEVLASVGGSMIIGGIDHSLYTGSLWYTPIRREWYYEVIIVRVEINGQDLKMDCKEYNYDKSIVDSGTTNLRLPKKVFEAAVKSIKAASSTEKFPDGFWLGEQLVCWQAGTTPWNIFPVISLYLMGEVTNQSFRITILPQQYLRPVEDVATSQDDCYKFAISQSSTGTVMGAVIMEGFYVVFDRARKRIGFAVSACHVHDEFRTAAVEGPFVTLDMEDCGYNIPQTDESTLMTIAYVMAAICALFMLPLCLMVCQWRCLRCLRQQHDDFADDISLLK
Cathepsin D, sequence (P07339 65-162 limits assumed): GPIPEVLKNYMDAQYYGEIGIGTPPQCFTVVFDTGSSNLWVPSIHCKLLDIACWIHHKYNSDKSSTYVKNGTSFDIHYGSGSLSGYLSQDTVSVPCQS
Cathepsin D, sequence (P07339 169-412 limits assumed): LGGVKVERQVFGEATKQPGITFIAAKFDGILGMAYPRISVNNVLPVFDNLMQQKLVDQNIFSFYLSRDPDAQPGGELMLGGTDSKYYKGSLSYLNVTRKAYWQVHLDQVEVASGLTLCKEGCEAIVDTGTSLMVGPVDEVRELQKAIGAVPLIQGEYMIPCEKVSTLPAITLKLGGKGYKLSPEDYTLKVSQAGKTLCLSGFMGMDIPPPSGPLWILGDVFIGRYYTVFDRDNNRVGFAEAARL

| SMILES | EC50 ([1]; Homo sapiens, HEK293) [µM] | IC50 [2] [µM] | IC50 [3] [µM] | Papp A→B at 2 h, 5 µM [4] [×10⁻⁶ cm/s] | EC50 [1] [µM] |
| --- | --- | --- | --- | --- | --- |
| CC(=O)N[C@@H](Cc1cc(F)cc(F)c1)[C@H](O)CN[C@@]1(c2cccc(C(C)(C)C)c2)CC[C@H](C#N)NC1 | 0.037 | 0.38 | 0.64 | – | – |
| CC(=O)N[C@@H](Cc1cc(F)cc(F)c1)[C@H](O)CNC1(c2cccc(-n3cccn3)c2)CCCOC1 (mixture of isomers) | 0.091 | 0.27 | 0.17 | – | – |
| CC(=O)N[C@@H](Cc1cc(F)cc(F)c1)[C@H](O)CN[C@@]1(c2cccc(C(C)(C)C)c2)CC[C@H](S(C)(=O)=O)NC1 | 0.1 | 0.21 | 2.3 | – | – |
| CC(=O)N[C@@H](Cc1cc(F)cc(F)c1)[C@H](O)CN[C@@]1(c2cccc(C(C)(C)C)c2)CC[C@H](NS(C)(=O)=O)NC1 | 0.0059 | 0.4 | 7.2 | – | – |
| CC(=O)N[C@@H](Cc1cc(F)cc(F)c1)[C@H](O)CN[C@@]1(c2cccc(C(C)(C)C)c2)CC[C@H](NO)NC1 | 0.00096 | 0.019 | 3.9 | – | – |
| CC(=O)N[C@@H](Cc1cc(F)cc(F)c1)[C@H](O)CNC1(c2cccc(C(C)(C)C)c2)CCCC1 (mixture of isomers) | > 0.1 | 0.22 | 0.13 | – | – |
| CC(=O)N[C@@H](Cc1cc(F)cc(F)c1)[C@H](O)CNC1(c2cccc(C(C)(C)C)c2)CCNC(=O)C1 (single isomer, unassigned) | 0.021 | 0.018 | 0.33 | – | – |
| CC(=O)N[C@@H](Cc1cc(F)cc(F)c1)[C@H](O)CNC1(c2cccc(C(C)(C)C)c2)CCCNC1 (mixture of isomers) | > 1 | > 10 | 2.33 | – | – |
| CC(=O)N[C@@H](Cc1cc(F)cc(F)c1)[C@H](O)CN[C@@]1(c2cccc(C(C)(C)C)c2)CCC(NO)=NC1 | 0.00089 | 0.0088 | 0.43 | – | – |
| CC(=O)N[C@@H](Cc1cc(F)cc(F)c1)[C@H](O)CNC1(c2cccc(C(C)(C)C)c2)CCOCC1 (mixture of isomers) | – | 0.061 | 0.23 | 8.1 | – |
| CC(=O)N[C@@H](Cc1cc(F)cc(F)c1)[C@H](O)CNC1(c2cccc(C(C)(C)C)c2)CCN(C(N)=O)CC1 | > 1 | 0.38 | 4.3 | – | – |
| CC(=O)N[C@@H](Cc1cc(F)cc(F)c1)[C@H](O)CNC1(c2cccc(C(C)(C)C)c2)CCCN(C(N)=O)C1 (mixture of isomers) | 0.21 | 0.33 | 0.09 | – | – |
| CC(=O)N[C@@H](Cc1cc(F)cc(F)c1)[C@H](O)CN[C@]1(c2cccc(C(C)(C)C)c2)CC[C@H](O)CC1 | 0.87 | 9.2 | > 10 | – | – |
| CC(=O)N[C@@H](Cc1cc(F)cc(F)c1)[C@H](O)CN[C@@]1(c2cccc(C(C)(C)C)c2)CC[C@H](Nc2ccccn2)NC1 | 0.021 | 0.073 | 4.4 | – | – |
| CC(=O)N[C@@H](Cc1cc(F)cc(F)c1)[C@H](O)CNC1(c2cccc(C(C)(C)C)c2)CCC(=O)NC1 (mixture of isomers) | 0.076 | 0.047 | 0.18 | – | – |
| CC(=O)N[C@@H](Cc1cc(F)cc(F)c1)[C@H](O)CNC1(c2cccc(C(C)(C)C)c2)CCc2n[nH]cc2C1 (mixture of isomers) | 0.0021 | – | 0.3 | 1.6 | – |
| CC(=O)N[C@@H](Cc1cc(F)cc(F)c1)[C@H](O)CN[C@@]1(c2cccc(C(C)(C)C)c2)CC[C@H](NC=O)NC1 | 0.0024 | 0.21 | > 10 | – | – |
| CC(=O)N[C@@H](Cc1cc(F)cc(F)c1)[C@H](O)CNC1(c2cccc(C(C)(C)C)c2)CCCN(O)C1 (mixture of isomers) | 0.045 | 0.4 | 0.67 | – | – |
| CC(=O)N[C@@H](Cc1cc(F)cc(F)c1)[C@H](O)CNC1(c2cccc(C(C)(C)C)c2)CCc2nc(N)ncc2C1 (mixture of isomers) | 0.0018 | 0.014 | 0.21 | – | – |

| SMILES | EC50 ([1]; Homo sapiens, HEK293) [µM] | IC50 [2] [µM] | IC50 [3] [µM] | Papp A→B at 2 h, 5 µM [4] [×10⁻⁶ cm/s] | EC50 [1] [µM] |
| --- | --- | --- | --- | --- | --- |
| CC(=O)N[C@@H](Cc1cc(F)cc(F)c1)[C@H](O)CNC1(c2cccc(C(C)(C)C)c2)CCc2nc(C)ncc2C1 (mixture of isomers) | 0.015 | 0.093 | 0.91 | – | – |
| CO[C@H]1CC[C@@](NC[C@@H](O)[C@H](Cc2cc(F)cc(F)c2)NC(C)=O)(c2cccc(C(C)(C)C)c2)CN1 | 0.013 | 0.14 | 0.13 | – | – |
| CC(=O)N[C@@H](Cc1cc(F)cc(F)c1)[C@H](O)CNC1(c2cccc(C(C)(C)C)c2)CCC(=O)CC1 | 0.0056 | 0.12 | 0.45 | – | – |
| CC(=O)N[C@@H](Cc1cc(F)cc(F)c1)[C@H](O)CN[C@@]1(c2cccc(C(C)(C)C)c2)CC[C@H](C(F)(F)F)NC1 | 0.054 | 0.033 | 0.028 | – | – |
| CON[C@H]1CC[C@@](NC[C@@H](O)[C@H](Cc2cc(F)cc(F)c2)NC(C)=O)(c2cccc(C(C)(C)C)c2)CN1 | 0.0076 | 0.1 | 0.53 | – | – |
| COC(=O)N[C@H]1CC[C@@](NC[C@@H](O)[C@H](Cc2cc(F)cc(F)c2)NC(C)=O)(c2cccc(C(C)(C)C)c2)CN1 | 0.016 | 0.24 | 2 | – | – |
| CC(=O)N[C@@H](Cc1cc(F)cc(F)c1)[C@H](O)CNC1(c2cccc(C(C)(C)C)c2)CCNCC1 | 0.71 | 4.7 | > 10 | – | – |
| CC(=O)N[C@@H](Cc1cc(F)cc(F)c1)[C@H](O)CN[C@@]1(c2cccc(C(C)(C)C)c2)CC[C@H](N(O)C(C)=O)NC1 | 0.0013 | 0.24 | 2.3 | – | – |
| CC(=O)N[C@@H](Cc1cc(F)cc(F)c1)[C@H](O)CNC1(c2cccc(C(C)(C)C)c2)CCNC(=O)C1 (stereo in doubt; 16) | – | 0.019 | 1.1 | – | 0.023 |
| CC(=O)N[C@@H](Cc1cc(F)cc(F)c1)[C@H](O)CNC1(c2cccc(C(C)(C)C)c2)CCCN(C(=O)OCc2ccccc2)C1 (mixture of isomers) | 0.78 | 0.86 | 0.0033 | – | – |
| CC(=O)N[C@@H](Cc1cc(F)cc(F)c1)[C@H](O)CNC1(c2cccc(C(C)(C)C)c2)CCCN(C(C)=O)C1 (mixture of isomers) | 0.56 | 1.3 | 0.41 | – | – |
| CC(=O)N[C@@H](Cc1cc(F)cc(F)c1)[C@H](O)CNC1(c2cccc(-n3cccn3)c2)CCOC1 (mixture of isomers) | > 1 | 2.4 | 4.9 | – | – |
| CC(=O)N[C@H]1CC[C@@](NC[C@@H](O)[C@H](Cc2cc(F)cc(F)c2)NC(C)=O)(c2cccc(C(C)(C)C)c2)CN1 | 0.048 | 0.35 | > 10 | – | – |
| CC(=O)N[C@@H](Cc1cc(F)cc(F)c1)[C@H](O)CN[C@]1(c2cccc(C(C)(C)C)c2)CC[C@@H](CCO)CC1 | > 1 | > 10 | > 10 | – | – |
| CS[C@H]1CC[C@@](NC[C@@H](O)[C@H](Cc2cc(F)cc(F)c2)NC(C)=O)(c2cccc(C(C)(C)C)c2)CN1 | 0.0075 | 0.024 | 0.084 | – | – |
| CC(=O)N[C@@H](Cc1cc(F)cc(F)c1)[C@H](O)CN[C@]1(c2cccc(C(C)(C)C)c2)CC[C@@H](CO)CC1 | 0.031 | 0.038 | 0.33 | – | – |
| CC(=O)N[C@@H](Cc1cc(F)cc(F)c1)[C@H](O)CN[C@@]1(c2cccc(C(C)(C)C)c2)CC[C@H](Nc2cccnc2)NC1 | – | 0.5 | 9.8 | – | – |
| CC(=O)N[C@@H](Cc1cc(F)cc(F)c1)[C@H](O)CN[C@]1(c2cccc(C(C)(C)C)c2)CC[C@@H](O)CC1 | 0.011 | 0.024 | 1.4 | 0.3 | – |
